Molecules are shown by their SMILES.

One experiment concerns the target T1, Estrogen receptor (Homo sapiens, UniProt P03372).
T1 sequence (P03372 whole entry): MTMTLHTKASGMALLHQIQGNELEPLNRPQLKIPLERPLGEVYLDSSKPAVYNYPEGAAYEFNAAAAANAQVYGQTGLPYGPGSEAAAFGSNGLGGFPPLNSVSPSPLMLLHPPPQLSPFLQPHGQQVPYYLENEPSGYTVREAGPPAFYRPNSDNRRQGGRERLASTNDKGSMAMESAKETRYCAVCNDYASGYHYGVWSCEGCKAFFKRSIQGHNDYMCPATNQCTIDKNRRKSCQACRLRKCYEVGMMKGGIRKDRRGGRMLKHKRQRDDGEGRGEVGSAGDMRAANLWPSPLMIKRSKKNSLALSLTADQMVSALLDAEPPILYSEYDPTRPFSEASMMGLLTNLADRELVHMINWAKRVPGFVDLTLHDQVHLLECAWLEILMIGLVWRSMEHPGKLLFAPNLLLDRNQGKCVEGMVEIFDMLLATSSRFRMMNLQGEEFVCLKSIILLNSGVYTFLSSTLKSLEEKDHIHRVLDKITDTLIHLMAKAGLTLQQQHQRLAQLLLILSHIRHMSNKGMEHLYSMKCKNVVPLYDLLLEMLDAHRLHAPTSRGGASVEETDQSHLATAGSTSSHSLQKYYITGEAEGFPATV
Put plainly: ChEBML_1664056. The text has this:
(§1) Displacement of [3H]estradiol from full-length human ERalpha receptor by scintillation counting
The term Ki denotes a dissociation constant, usually derived from enzyme kinetics or from competition with a known ligand. Read a high Ki as weaker binding. As to `CCCCNC(=O)/C=C/c1ccc(C(=C2C3CC4CC(C3)CC2C4)c2ccc(O)cc2)cc1`, the Ki was found to be 0.71 nM.

The next experiment has as its target T1, Estrogen receptor. The description is as §1.
Consider `CCCCN(C)C(=O)/C=C/c1ccc(C(=C2C3CC4CC(C3)CC2C4)c2ccc(O)cc2)cc1`, for which the Ki was determined as 0.71 nM.

On to `O=C(/C=C/c1ccc(C(=C2C3CC4CC(C3)CC2C4)c2ccc(O)cc2)cc1)OCCCO`, for which the affinity corresponds to a Ki of 0.71 nM. On the same count and under the same terms, to `COC(=O)/C=C/c1ccc(C(=C2C3CC4CC(C3)CC2C4)c2ccc(O)cc2)cc1` belongs 0.43 nM. Still for that read-out and setting: with `O=C(/C=C/c1ccc(C(=C2C3CC4CC(C3)CC2C4)c2ccc(O)cc2)cc1)OCCO` the figure was 0.37 nM. On the same count and under the same terms, with `O=C(/C=C/c1ccc(C(=C2C3CC4CC(C3)CC2C4)c2ccc(O)cc2)cc1)NCCCO` the figure was 0.43 nM. The compound `NCCCNC(=O)/C=C/c1ccc(C(=C2C3CC4CC(C3)CC2C4)c2ccc(O)cc2)cc1` returned a Ki of 0.37 nM.

(Values after BindingDB's records for doi:10.1021/acs.jmedchem.7b00585 (The Scripps Research Institute, 2017).)
